Data set [1] is described as follows: Acute toxicity in mice, LD50 oral and intraperitoneal. As to conditions: mouse, in vivo. An excerpt: Most of the compounds of the formula (I) have low toxicity, as is apparent from following Table II in which are given the LD50 per os and i.p. in mice.
The test system of data set [2] is collateral arteries. Nature of the data set: Acute occlusion of the femoral artery: resistance of the collateral arteries, systemic blood pressure, tissue perfusion pressure. In kind it is in vivo, dogs. Here is the method:
Thus, with some of the compounds, there was noted an increase of the arterial rate of flow from as low a dosage as 0.1-0.5 mg/kg i.v.

Setting [3] is: ip, read-out: Acute toxicity, intraperitoneal route LD50.
The mark [4] stands for this setting: po, per os, read-out: Acute toxicity, oral route LD50.

Like-named read-outs stand apart in the source and are kept apart here. Some results are limits rather than exact numbers.

In general, LD50 refers to the dose at which mortality reaches 50%. In the case of `Cc1nc2c(s1)CC(CN)CC2` (stereo not drawn) [Example 17, 2-methyl-6-aminomethyl-4,5,6,7-tetrahydro-benzo[d]thiazole], the 50% lethal dose (LD50) in data set [1] (setting [3]) and in data set [1] (setting [4]) was greater than 200 mg/kg each time.
Regarding `CNCC1CCc2nc(C)sc2C1` (stereo not drawn) [Example 7, 2-Methyl-6-(N-methylaminomethyl)-4,5,6,7-tetrahydrobenzo[d]thiazole], the LD50 in data set [1] (setting [3]) and in data set [1] (setting [4]) was greater than 200 mg/kg throughout.
As for `CCCCc1nc2c(s1)CCCC2CNC` (stereo not drawn) [Example 11, 2-n-Butyl-4-(N-methylaminomethyl)4,5,6,7-tetrahydro-benzo[d]thiazole], the 50% lethal dose (LD50) in data set [1] (setting [3]) is 58 mg/kg. For the same compound, in data set [1] (setting [4]), the LD50 is no less than 200 mg/kg. Further, in data set [2], the “decrease of the resistance of the collateral arteries” value is given as “marked decrease”, the “effect on systemic blood pressure” value is on record as “without substantially affecting” and the “effect on tissue perfusion pressure” value is “without substantially affecting”.
Regarding `CCCCNCC1CCCc2sc(C)nc21` (stereo not drawn) [Example 18, 2-methyl-4-(N--n-butylamino-methyl)-4,5,6,7-tetrahydro-benzo[d]thiazole], the LD50 in data set [1] (setting [3]) is 58 mg/kg; in data set [1] (setting [4]), greater than 200 mg/kg.
For `CNCC1CCCc2scnc21` (stereo not drawn) [Example 2, 4-(N-Methylaminomethyl)-4,5,6,7-tetrahydro-benzo[d]thiazole], the LD50 in data set [1] (setting [3]) is no less than 200 mg/kg; in data set [1] (setting [4]), greater than 200 mg/kg.
In the case of `NCC1CCCc2scnc21` (stereo not drawn) [Example 1, 4-Aminomethyl-4,5,6,7-tetrahydro-benzo[d]thiazole], the values for the median lethal dose (LD50) in data set [1] (setting [3]) and in data set [1] (setting [4]) were 140 mg/kg and greater than 200 mg/kg, respectively.
For `CCCNCC1CCc2ncsc2C1` (stereo not drawn) [Example 10, 6-(N-n-Propylaminomethyl)-4,5,6,7-tetrahydro-benzo[d]thiazole], the LD50 was 190 mg/kg in data set [1] (setting [3]) and greater than 200 mg/kg in data set [1] (setting [4]).
Regarding `Cc1nc2c(s1)CCCC2CN` (stereo not drawn) [Example 3, 2-Methyl-4-aminomethyl-4,5,6,7-tetrahydro-benzo[d]thiazole], the LD50 in data set [1] (setting [4]) was greater than 200 mg/kg.
Regarding `Cc1nc2c(s1)CCC(CNC(C)C)C2` (stereo not drawn) [Example 19, 2-methyl-5-(N--isopropylamino-methyl)-4,5,6,7-tetrahydro-benzo[d]thiazole], the LD50 in data set [1] (setting [3]) and in data set [1] (setting [4]) was greater than 200 mg/kg in each case.
As for `NCC1CCc2ncsc2C1` (stereo not drawn) [Example 8, 6-Aminomethyl-4,5,6,7-tetrahydro-benzo[d]thiazole], the median lethal dose (LD50) in data set [1] (setting [3]) and in data set [1] (setting [4]) was greater than 200 mg/kg in each case.
Take `CCCCNCC1CCc2sc(C)nc2C1` (stereo not drawn) [Example 20]: the median lethal dose (LD50) in data set [1] (setting [3]) is 58 mg/kg; in data set [1] (setting [4]) it was 145 mg/kg.
For the compound `NCC1CCc2scnc2C1` (stereo not drawn) [Example 14, 5-aminomethyl-4,5,6,7-tetrahydro-benzo[d]thiazole], the 50% lethal dose (LD50) in data set [1] (setting [3]) is greater than 200 mg/kg; in data set [1] (setting [4]) it was no less than 200 mg/kg.
Regarding `CNCC1CCc2sc(C)nc2C1` (stereo not drawn) [Example 6, 2-Methyl-5-(N-methylaminomethyl)-4,5,6,7-tetrahydrobenzo[d]thiazole], the LD50 in data set [1] (setting [4]) is greater than 200 mg/kg. In data set [2], the “decrease of the resistance of the collateral arteries” value was “marked decrease”, the “effect on systemic blood pressure” value was “without substantially affecting” and the “effect on tissue perfusion pressure” value is “without substantially affecting”.
For `CCCCc1nc2c(s1)CCC(CNC)C2` (stereo not drawn) [Example 12, 2-n-Butyl-5-(N-methylaminomethyl)-4,5,6,7-tetrahydrobenzo[d]thiazole], the results for the LD50 in data set [1] (setting [3]) and in data set [1] (setting [4]) were 140 mg/kg and greater than 200 mg/kg, respectively.
In the case of `Cc1nc2c(s1)CCC(CN)C2` (stereo not drawn) [Example 15, 2-methyl-5-aminomethyl-4,5,6,7-tetrahydro-benzo[d]thiazole], the LD50 in data set [1] (setting [3]) and in data set [1] (setting [4]) was greater than 200 mg/kg throughout.
On to `CNCC1CCc2sc(C(C)C)nc2C1` (stereo not drawn) [Example 13, 2-Isopropyl-5-(N-methylaminomethyl)-4,5,6,7-tetrahydrobenzo[d]thiazole], for which the values for the LD50 in data set [1] (setting [3]) and in data set [1] (setting [4]) were 140 mg/kg and greater than 200 mg/kg, respectively.
`CNCC1CCc2scnc2C1` (stereo not drawn) [Example 5, 5-(N-Methylaminomethyl)-4,5,6,7-tetrahydro-benzo[d]thiazole]: the 50% lethal dose (LD50) in data set [1] (setting [3]) and in data set [1] (setting [4]) was greater than 200 mg/kg each time.
Consider `CCNCC1CCc2nc(CC)sc2C1` (stereo not drawn) [Example 9, 2-Ethyl-6-(N-ethylaminomethyl)-4,5,6,7-tetrahydrobenzo[d]thiazole], for which the values for the LD50 in data set [1] (setting [3]) and in data set [1] (setting [4]) were 120 mg/kg and greater than 200 mg/kg, respectively.
Consider `CNCC1CCc2ncsc2C1` (stereo not drawn) [Example 16, 6-(N--methylaminomethyl)-4,5,6,7-tetrahydro-benzo[d]thiazole], for which the LD50 turned out to be 75 mg/kg in data set [1] (setting [3]) and 170 mg/kg in data set [1] (setting [4]).

Source of the values: patent publication US4423056A, “5(Aminomethyl)-4,5,6,7-tetrahydro[d]thiazole containing compositions for and medical use in treating circulatory insufficiencies” (Laboratoires Jacques Logeais, priority 1979, dated 1983).
